In US20240002425A1, “NOVEL AMINOALKYL GLUCOSAMINIDE 4-PHOSPHATE DERIVATIVE” (DAIICHI SANKYO COMPANY, LIMITED, priority 2020, published 2024):

Assays:
Type in all cases: in vivo, mouse
[1] = system: Japanese cedar pollen antigen (Cry j 1); assay: Immunostimulatory effect on Japanese cedar pollen antigen by sublingual administration (anti-Cry j 1 IgG or IgA); details: sublingual with Japanese cedar pollen antigen
Protocol: The compound described in Example 24 was used to study its immunostimulatory effect on a Japanese cedar pollen antigen by sublingual administration.
Allergen sensitization was performed by subcutaneously administering 50 μL of Japanese cedar pollen antigen extracts (allergen scratch extracts “Torii” Japanese cedar pollen, Torii Pharmaceutical Co., Ltd.) to the mouse tail root 3 and 1 weeks before the start of sublingual administration. Blood was collected 4 days after the second sensitization, and anti-Cry j 1 IgG was measured in accordance with the subsequent section. Mice were grouped such that their measured values were evenly distributed among the groups. Sublingual administration (sublingual allergen immunotherapy model) was started from 3 days thereafter.
The antigen used was a Japanese cedar pollen antigen (5000 JAU CEDARCURE®, Torii Pharmaceutical Co., Ltd.) dissolved in 100 μL of PBS. The compound of Example 24 was dissolved in injectable water (Otsuka Pharmaceutical Co., Ltd.) to prepare a 5 mg/mL solution. The antigen and the compound of Example 24 were mixed in equal amounts immediately before administration.
Each mouse was allowed to refrain from eating and drinking from 1 hour before sublingual administration. […]
25 μL of 10 μg/mL ImmunoPure Streptavidin (Thermo Fisher Scientific Inc., Cat No. 21125) was added to each well of 96 Well Micro Plate (Corning, Inc., Cat No. 3690), which was then left standing overnight at 4° C. […] The plate was left standing at room temperature for 10 minutes, and 30 μL of TMB Stop Solution was then added to each well, followed by the measurement of absorbance at 450 nm.
Positive serum was used as a standard specimen of serum, and anti-Cry j 1 IgG or IgA contained therein was set to 1000 units/mL. […] An evaluation specimen was diluted 1000-fold with an ELISA solution and measured, and the unit value of anti-Cry j 1 IgG or IgA in the evaluation specimen was determined using the calibration curve. […]

[2] = system: cervical lymph node immune cells; assay: Cry j 1-specific cell-mediated immunity assay (cervical lymph node cells); parameters: IFN-7 produced by Cry j 1 stimulation / IL-4 produced by Cry j 1 stimulation: unit not given here; details: cervical lymph node cells after sublingual administration with Japanese cedar pollen antigen
Protocol: Cervical lymph node was collected, then pooled for each group, and ground in PBS (1% BSA). The resultant was passed through a 70 μm strainer. […] Cells were recovered with RPMI/FBS/ps, and the number of cells was prepared to 2×5×10^6 cells/mL.

[3] = system: mast cell degranulation reaction mediated by anti-Cry j 1 IgE; assay: Suppression of mast cell degranulation by immune serum-derived IgG; details: IgG from serum of SLIT mice, 200 ng/mL Cry j 1 stimulation; vs No-SLIT and Japanese Cedar Pollen SLIT groups (FIG. 17)
Protocol: IgG was purified from 200 μL of serum of each mouse individual of the allergen immunotherapy model in accordance with the protocol of Protein G HP spin trap (Cytiva, 28-9031-34). The solvent in the purified IgG was replaced with 50 μL of Tyrode's solution using Vivaspin 500, 10 kDa MWCO Polyethersulfone (Cytiva, 28-9322-25). Cry j 1 (2×10×200 ng/mL, 1.5 μL, Tyrode's solution) was added to the purified IgG (13.5 μL, Tyrode's solution), and the mixture was left standing at room temperature for 1 hour in the dark. The mast cells sensitized with anti-Cry j 1 IgE were treated with 10 μL of this specimen as a test substance, and the amount of the mast cell degranulation was measured (final concentration: 200 ng/mL, Cry j 1 stimulation).

## CCCCCCCCCCC[C@H](CC(=O)N[C@@H](CO[C@@H]1O[C@H](CO[C@]2(C(=O)O)C[C@@H](O)[C@@H](O)[C@@H]([C@H](O)CO)O2)[C@@H](OP(=O)(O)O)[C@H](OC(=O)C[C@@H](CCCCCCCCCCC)OC(=O)CCCCCCCCC)[C@H]1NC(=O)C[C@@H](CCCCCCCCCCC)OC(=O)CCCCCCCCC)CC(=O)O)OC(=O)CCCCCCCCC.CNC[C@H](O)[C@@H](O)[C@H](O)[C@H](O)CO.CNC[C@H](O)[C@@H](O)[C@H](O)[C@H](O)CO.CNC[C@H](O)[C@@H](O)[C@H](O)[C@H](O)CO.CNC[C@H](O)[C@@H](O)[C@H](O)[C@H](O)CO [Example 24, Tetrameglumine (3R)-3-{[(3R)-3-(decanoyloxy)tetradecanoyl]amino}-4-({3-O-[(3R)-3-(decanoyloxy)tetradecanoyl]-2-{[(3R)-3-(decanoyloxy)tetradecanoyl]amino}-2-deoxy-6-O-(3-deoxy-α-D-manno-oct-2-ulopyranonosyl)-4-O-phosphono-β-D-glucopyranosyl}oxy)butanoate]
[1]; 5 weeks (FIG. 11)
  anti-Cry j 1 IgA in nasal wash: induced at a high level
[1]; vs No-SLIT and Japanese Cedar Pollen SLIT groups (FIG. 9)
  anti-Cry j 1 IgG in serum: induced at a higher level
[1]; vs No-SLIT and Japanese Cedar Pollen SLIT groups (FIG. 10)
  anti-Cry j 1 IgA in serum: induced at a higher level
[2]; 44 hours culture (FIG. 12)
  IL-10 produced by Cry j 1 stimulation: strongly induced
[2]; 44 hours culture (FIG. 13)
  IFN-7 produced by Cry j 1 stimulation: ≤ 9.77
[2]; 44 hours culture (FIG. 14)
  IL-4 produced by Cry j 1 stimulation: ≤ 9.77
[3]
  mast cell degranulation with IgG purified from mouse serum: suppressed
